{
  "source": "ChEMBL document CHEMBL6103593",
  "about": "“Design of Selective BRD4 Inhibitors for the Treatment of Autosomal Dominant Polycystic Kidney Disease” (J Med Chem, 2025)",
  "key": {"[1]": {"molecular_target": "T1, Bromodomain-containing protein 2 (Homo sapiens, UniProt P25440)", "T1 sequence (P25440 whole entry, the tested form may be a part)": "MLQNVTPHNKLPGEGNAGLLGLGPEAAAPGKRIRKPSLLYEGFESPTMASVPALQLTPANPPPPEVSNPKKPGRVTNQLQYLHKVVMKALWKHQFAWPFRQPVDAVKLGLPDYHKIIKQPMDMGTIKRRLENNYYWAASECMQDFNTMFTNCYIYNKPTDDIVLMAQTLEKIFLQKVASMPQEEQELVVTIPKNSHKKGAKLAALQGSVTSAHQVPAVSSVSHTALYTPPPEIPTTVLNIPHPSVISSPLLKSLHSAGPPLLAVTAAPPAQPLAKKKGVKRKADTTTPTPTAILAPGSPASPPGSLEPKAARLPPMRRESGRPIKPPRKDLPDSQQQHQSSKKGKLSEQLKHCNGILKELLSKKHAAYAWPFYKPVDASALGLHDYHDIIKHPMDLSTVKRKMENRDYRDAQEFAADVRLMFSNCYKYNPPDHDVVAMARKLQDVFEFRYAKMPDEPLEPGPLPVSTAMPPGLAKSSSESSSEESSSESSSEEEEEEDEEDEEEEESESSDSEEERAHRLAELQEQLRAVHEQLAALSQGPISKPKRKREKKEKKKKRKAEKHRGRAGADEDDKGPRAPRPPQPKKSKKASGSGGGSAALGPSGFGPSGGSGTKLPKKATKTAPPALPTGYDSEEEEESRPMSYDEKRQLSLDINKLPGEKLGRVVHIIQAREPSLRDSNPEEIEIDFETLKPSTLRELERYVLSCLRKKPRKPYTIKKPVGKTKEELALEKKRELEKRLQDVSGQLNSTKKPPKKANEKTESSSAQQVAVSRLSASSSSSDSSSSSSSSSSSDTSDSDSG", "assay": "Inhibition of BRD2 bromodomain 1 (67 to 200 residues) (unknown origin) extracted from Escherichia coli […] codon plus RIL cells incubated for 4 hrs by fluorescence anisotropy"}, "[2]": {"molecular_target": "T1, Bromodomain-containing protein 2", "assay": "Inhibition of BRD2 bromodomain 2 (348 to 455 residues) (unknown origin) extracted from Escherichia coli […] codon plus RIL cells incubated for 4 hrs by fluorescence anisotropy"}, "[3]": {"molecular_target": "Histone acetyltransferase p300 (Homo sapiens, UniProt Q09472)", "sequence (Q09472 whole entry, the tested form may be a part)": "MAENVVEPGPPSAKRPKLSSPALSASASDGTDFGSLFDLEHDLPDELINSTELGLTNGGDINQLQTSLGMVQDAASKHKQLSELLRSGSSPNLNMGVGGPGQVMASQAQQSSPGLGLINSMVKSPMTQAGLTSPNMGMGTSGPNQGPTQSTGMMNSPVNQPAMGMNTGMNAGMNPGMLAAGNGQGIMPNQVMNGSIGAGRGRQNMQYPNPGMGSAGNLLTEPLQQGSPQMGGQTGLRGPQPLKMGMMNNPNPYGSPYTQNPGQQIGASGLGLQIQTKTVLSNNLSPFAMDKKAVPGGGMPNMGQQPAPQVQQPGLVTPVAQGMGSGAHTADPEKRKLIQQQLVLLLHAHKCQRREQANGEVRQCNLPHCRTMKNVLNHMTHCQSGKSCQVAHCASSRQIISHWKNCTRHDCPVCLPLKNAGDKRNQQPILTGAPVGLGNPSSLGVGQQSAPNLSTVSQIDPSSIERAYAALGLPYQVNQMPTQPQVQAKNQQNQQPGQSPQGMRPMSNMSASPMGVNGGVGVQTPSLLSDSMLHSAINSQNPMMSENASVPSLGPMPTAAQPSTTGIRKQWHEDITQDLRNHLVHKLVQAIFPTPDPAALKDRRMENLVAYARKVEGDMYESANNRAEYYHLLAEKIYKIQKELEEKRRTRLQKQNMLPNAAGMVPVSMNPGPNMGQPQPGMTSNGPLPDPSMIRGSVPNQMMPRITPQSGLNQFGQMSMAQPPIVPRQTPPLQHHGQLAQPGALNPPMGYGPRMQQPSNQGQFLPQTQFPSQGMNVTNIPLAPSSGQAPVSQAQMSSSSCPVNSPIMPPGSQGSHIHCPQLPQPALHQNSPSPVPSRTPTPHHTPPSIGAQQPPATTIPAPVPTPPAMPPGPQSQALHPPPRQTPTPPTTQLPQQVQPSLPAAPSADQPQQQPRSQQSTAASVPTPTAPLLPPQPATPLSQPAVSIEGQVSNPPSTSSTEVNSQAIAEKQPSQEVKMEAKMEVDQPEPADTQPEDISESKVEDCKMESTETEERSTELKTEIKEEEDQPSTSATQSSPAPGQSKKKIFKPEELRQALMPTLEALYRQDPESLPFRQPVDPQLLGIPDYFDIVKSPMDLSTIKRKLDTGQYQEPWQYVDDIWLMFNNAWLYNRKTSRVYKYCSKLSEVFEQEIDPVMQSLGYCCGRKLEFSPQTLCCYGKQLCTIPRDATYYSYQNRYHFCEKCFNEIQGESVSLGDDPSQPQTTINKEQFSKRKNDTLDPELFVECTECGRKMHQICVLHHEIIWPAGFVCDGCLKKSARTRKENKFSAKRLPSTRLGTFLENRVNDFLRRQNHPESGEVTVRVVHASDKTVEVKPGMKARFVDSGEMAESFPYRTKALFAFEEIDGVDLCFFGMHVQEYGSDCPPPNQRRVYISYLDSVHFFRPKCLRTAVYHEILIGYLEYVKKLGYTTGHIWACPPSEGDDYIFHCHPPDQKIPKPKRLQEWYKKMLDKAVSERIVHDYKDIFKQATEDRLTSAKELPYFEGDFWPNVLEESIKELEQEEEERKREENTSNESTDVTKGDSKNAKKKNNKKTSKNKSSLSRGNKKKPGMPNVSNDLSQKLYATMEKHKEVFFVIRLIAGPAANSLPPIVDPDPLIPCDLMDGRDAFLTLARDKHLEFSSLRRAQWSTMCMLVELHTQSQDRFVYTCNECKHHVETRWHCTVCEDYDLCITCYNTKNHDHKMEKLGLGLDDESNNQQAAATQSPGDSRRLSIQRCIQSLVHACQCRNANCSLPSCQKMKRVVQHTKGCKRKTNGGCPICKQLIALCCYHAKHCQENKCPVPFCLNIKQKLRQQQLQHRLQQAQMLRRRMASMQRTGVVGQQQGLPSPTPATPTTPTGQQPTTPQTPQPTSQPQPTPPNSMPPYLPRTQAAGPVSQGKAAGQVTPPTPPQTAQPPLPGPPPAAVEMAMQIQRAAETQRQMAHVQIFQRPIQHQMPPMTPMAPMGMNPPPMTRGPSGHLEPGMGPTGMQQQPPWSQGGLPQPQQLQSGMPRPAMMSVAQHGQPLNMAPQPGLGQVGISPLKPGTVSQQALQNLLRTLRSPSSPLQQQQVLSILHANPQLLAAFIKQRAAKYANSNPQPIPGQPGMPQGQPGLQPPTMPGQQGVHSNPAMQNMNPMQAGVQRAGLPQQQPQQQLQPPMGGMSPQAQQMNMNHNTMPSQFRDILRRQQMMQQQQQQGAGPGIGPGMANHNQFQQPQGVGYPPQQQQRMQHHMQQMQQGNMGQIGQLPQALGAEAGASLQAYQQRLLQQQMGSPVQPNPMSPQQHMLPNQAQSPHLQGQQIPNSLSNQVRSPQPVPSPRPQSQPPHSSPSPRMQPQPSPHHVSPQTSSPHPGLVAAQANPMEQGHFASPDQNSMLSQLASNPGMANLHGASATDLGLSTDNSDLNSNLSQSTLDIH", "assay": "Inhibition of EP300 (1039 to 1161 residues) (unknown origin) extracted from Escherichia coli […] codon plus RIL cells incubated for 4 hrs by fluorescence anisotropy"}, "[4]": {"molecular_target": "T2, Bromodomain-containing protein 4 (Homo sapiens, UniProt O60885)", "assay": "Inhibition of BRD4 bromodomain 1 (44 to 168 residues) (unknown origin) extracted from Escherichia coli […] codon plus RIL cells incubated for 4 hrs by fluorescence anisotropy"}, "[5]": {"molecular_target": "T2, Bromodomain-containing protein 4", "assay": "Inhibition of BRD4 bromodomain 2 (332 to 460 residues) (unknown origin) extracted from Escherichia coli […] codon plus RIL cells incubated for 4 hrs by fluorescence anisotropy"}},
  "note": "pIC50: −log10 of the molar value.",
  "data": [
    {"compound": "Cc1cc(Nc2nn(C)c3ccccc23)nc(Nc2ccc3c(c2)N(C(C)C)[C@H](C)C(=O)N3C)n1", "values": [
      {"measurement": "pIC50", "setting": "[1]", "value": 7.30},
      {"measurement": "pIC50", "setting": "[2]", "value": 6.54},
      {"measurement": "pIC50", "setting": "[3]", "value": "< 6.00"}
    ]},
    {"compound": "CCc1cc(Nc2cccc(Cl)c2)nc(Nc2ccc3c(c2)N(C(C)C)[C@H](C)C(=O)N3C)n1", "values": [
      {"measurement": "pIC50", "setting": "[4]", "value": 6.30},
      {"measurement": "pIC50", "setting": "[5]", "value": 5.68}
    ]},
    {"compound": "CCc1cc(Nc2nn(C)c3ccccc23)nc(Nc2ccc3c(c2)N(C(C)C)[C@H](C)C(=O)N3C)n1", "values": [
      {"measurement": "pIC50", "setting": "[1]", "value": 7.53},
      {"measurement": "pIC50", "setting": "[2]", "value": 6.52},
      {"measurement": "pIC50", "setting": "[3]", "value": "< 6.00"}
    ]},
    {"compound": "CC(C)N1c2cc(Nc3nccc(Nc4nn(C)c5ccccc45)n3)ccc2N(C)C(=O)[C@H]1C", "values": [
      {"measurement": "pIC50", "setting": "[1]", "value": 7.50},
      {"measurement": "pIC50", "setting": "[2]", "value": 6.63},
      {"measurement": "pIC50", "setting": "[3]", "value": "< 6.00"}
    ]}
  ]
}
